Experimental data taken from US20220298160A1, “COMPOUNDS USEFUL IN HIV THERAPY” (priority 2019, published 2022).

Assays:
[1] = system: HIV pseudotyped virus (NL4-3 provirus), WT; experiment: PSV assay (pseudotyped virus assay), WT; details: Human immunodeficiency virus 1, NL43, in Homo sapiens, 72 h, read-out: WT IC50 (μM), PSV assay; U373 cells expressing human CD4 and CXCR4 or CCR5; luciferase signal after 3 days of culture
Source text: A pseudotyped virus assay (PSV) was used to assess the potency of the HIV inhibitor. Replication defective virus was produced by co-transfection of a plasmid containing an NL4-3 provirus [containing a mutation in the envelope open reading frame (ORF) and a luciferase reporter gene replacing the nef ORF] and a CMV-promoter expression plasmid containing an ORF for various HIV gp160 envelope clones. The harvested virus was stored at −80 C in small aliquots and the titer of the virus measured to produce a robust signal for antiviral assays.
The PSV assay was performed by using U373 cells stably transformed to express human CD4, the primary receptor for HIV entry and either human CXCR4 or human CCR5 which are the co-receptors required for HIV entry as target cells for infection. […] This dose-range was applied to U373 cells and the pre-made pseudotyped virus added. The amount of luciferase signal produced after 3 days of culture was used to reflect the level of pseudotyped virus infection. An IC50, or the concentration of inhibitor required to reduce PSV infection by 50% from the infection containing no inhibitor was calculated. […] IC50 values were determined from a 10 point dose response curve using 3-4-fold serial dilution for each compound, which spans a concentration range >1000 fold.

[2] = system: HIV pseudotyped virus (NL4-3 provirus), M184V; type: cell-based; details: PSV assay; U373 cells expressing human CD4 and CXCR4 or CCR5; luciferase signal after 3 days of culture

Structure (SMILES)	IC50 [1] [µM]	IC50 [2] [µM]
C#C[C@]1(CO)O[C@@H](n2cnc3c(NC(=O)OC(COC(=O)CCCCCCCC)COC(=O)CCCCCCCC)nc(F)nc32)C[C@@H]1O [Example 33, 2-(((9-((2R,4S,5R)-5-ethynyl-4-hydroxy-5-(hydroxymethyl)tetrahydrofuran-2-yl)-2-fluoro-9H-purin-6-yl)carbamoyl)oxy)propane-1,3-diyl dinonanoate]	0.0054	0.0243
C#C[C@]1(COC(=O)NCCCCCCCCCCCCCCCCCC)O[C@@H](n2cnc3c(N)nc(F)nc32)C[C@@H]1O [Example 1, ((2R,3S,5R)-5-(6-amino-2-fluoro-9H-purin-9-yl)-2-ethynyl-3-hydroxytetrahydrofuran-2-yl)methyl octadecylcarbamate]	> 25	> 25
C#C[C@]1(CO)O[C@@H](n2cnc3c(N)nc(F)nc32)C[C@@H]1OC(=O)OC1COC(=O)CCCCCCCCCCCC(=O)OC1 [Example 31, (2R,3S,5R)-5-(6-amino-2-fluoro-9H-purin-9-yl)-2-ethynyl-2-(hydroxymethyl)tetrahydrofuran-3-yl (6,18-dioxo-1,5-dioxacyclooctadecan-3-yl) carbonate]	0.0151	0.0478
C#C[C@]1(COC(=O)NCCCCCCCCCCCC)O[C@@H](n2cnc3c(N)nc(F)nc32)C[C@@H]1O [Example 3, ((2R,3S,5R)-5-(6-amino-2-fluoro-9H-purin-9-yl)-2-ethynyl-3-hydroxytetrahydrofuran-2-yl)methyl dodecylcarbamate]	2.01	8.17
C#C[C@]1(CO)O[C@@H](n2cnc3c(NC(=O)OC(COC(=O)CCCC)COC(=O)CCCC)nc(F)nc32)C[C@@H]1O [Example 32, 2-(((9-((2R,4S,5R)-5-ethynyl-4-hydroxy-5-(hydroxymethyl)tetrahydrofuran-2-yl)-2-fluoro-9H-purin-6-yl)carbamoyl)oxy)propane-1,3-diyl dipentanoate]	0.0075	0.0269
C#C[C@]1(CO)O[C@@H](n2cnc3c(N)nc(F)nc32)C[C@@H]1OC(=O)N1CCC(C)CC1 [Example 22, (2R,3S,5R)-5-(6-amino-2-fluoro-9H-purin-9-yl)-2-ethynyl-2-(hydroxymethyl)tetrahydrofuran-3-yl 4-methylpiperidine-1-carboxylate]	11.7	> 25
C#C[C@]1(CO)O[C@@H](n2cnc3c(N)nc(F)nc32)C[C@@H]1OC(=O)OC(COC(C)=O)COC(C)=O [Example 28, 2-(((((2R,3S,5R)-5-(6-amino-2-fluoro-9H-purin-9-yl)-2-ethynyl-2-(hydroxymethyl)tetrahydrofuran-3-yl)oxy)carbonyl)oxy)propane-1,3-diyl diacetate]	0.0106	0.0392
C#C[C@]1(CO)O[C@@H](n2cnc3c(N)nc(F)nc32)C[C@@H]1OC(=O)OC(COC(=O)CCCC)COC(=O)CCCC [Example 29, 2-(((((2R,3S,5R)-5-(6-amino-2-fluoro-9H-purin-9-yl)-2-ethynyl-2-(hydroxymethyl)tetrahydrofuran-3-yl)oxy)carbonyl)oxy)propane-1,3-diyl dipentanoate]	0.0077	0.0283
C#C[C@]1(CO)O[C@@H](n2cnc3c(N)nc(F)nc32)C[C@@H]1OC(=O)NCC(=O)OCCCCC [Example 27, pentyl ((((2R,3S,5R)-5-(6-amino-2-fluoro-9H-purin-9-yl)-2-ethynyl-2-(hydroxymethyl)tetrahydrofuran-3-yl)oxy)carbonyl)glycinate]	> 25	> 25
C#C[C@]1(CO)O[C@@H](n2cnc3c(N)nc(F)nc32)C[C@@H]1OC(=O)NC [Example 18, (2R,3S,5R)-5-(6-amino-2-fluoro-9H-purin-9-yl)-2-ethynyl-2-(hydroxymethyl)tetrahydrofuran-3-yl methylcarbamate]	2.03	9.11
